“Also recorded” adds a separate entry of the source.
Experiments:
Format in all cases: cell-based, human
[1] = tested on: NK cells; test: NK cell expansion from CD34+ cells in three-stage NK culture, compound present for the first 14 days; settings: for support of NK cell expansion (and differentiation), in words: compound at 10 μM during first 14 days of culture; for support of NK cell expansion (and differentiation), in words / level of expansion compared to SR1 at Day 35: Day 35; for level of expansion compared to SR1 at Day 35 / expansion, differentiation and cytotoxicity profiles compared to SR1: compound at 10 μM; for level of expansion compared to SR1 at Day 35: SR1 at 10 μM as positive control; for expansion, differentiation and cytotoxicity profiles compared to SR1: PNK-007 culture
Procedure: (§1) CD34^+ cells are cultured in the following medium formulations for the indicated number of days, and aliquots of cells are taken for assessment of cell count, cell viability, characterization of natural killer cell differentiation and functional evaluation.
(§2) Stage 1 medium: 90% Stem Cell Growth Medium (SCGM) (CellGro®), 10% Human Serum-AB, supplemented with 25 ng/mL or 250 ng/mL recombinant human thrombopoietin (TPO), 25 ng/mL recombinant human Flt3L, 27 ng/mL recombinant human stem cell factor (SCF), 25 ng/mL recombinant human IL-7, 0.05 ng/mL or 0.025 ng/mL recombinant human IL-6, 0.25 ng/mL or 0.125 ng/mL recombinant human granulocyte colony-stimulating factor (G-CSF), 0.01 ng/mL or 0.025 ng/mL recombinant human granulocyte-macrophage colony-stimulating factor (GM-CSF), 0.10% gentamicin, and 1 to 10 μm StemRegenin-1 (SR-1) or other stem cell mobilizing agent.
(§3) Stage 2 medium: 90% SCGM, 10% Human Serum-AB, supplemented with 25 ng/mL recombinant human Flt3L, 27 ng/mL recombinant human SCF, 25 ng/mL recombinant human IL-7, 20 ng/mL recombinant human IL-15, 0.05 ng/mL or 0.025 ng/mL recombinant human IL-6, 0.25 ng/mL or 0.125 ng/mL recombinant human granulocyte colony-stimulating factor (G-CSF), 0.01 ng/mL or 0.025 ng/mL recombinant human granulocyte-macrophage colony-stimulating factor (GM-CSF), 0.10% gentamicin, and 1 to […] SR1 or other stem cell mobilizing agent.
Stage 3 medium: 90% STEMMACS′, 10% Human Serum-AB, 0.025 mM 2-mercaptoethanol (55 mM), supplemented with 22 ng/mL recombinant human SCF, 1000 U/mL recombinant human IL-2, 20 ng/mL recombinant human IL-7, 20 ng/mL recombinant human IL-15, 0.05 ng/mL or 0.025 ng/mL recombinant human IL-6, 0.25 ng/mL or 0.125 ng/mL recombinant human granulocyte colony-stimulating factor (G-CSF), 0.01 ng/mL or 0.025 ng/mL recombinant human granulocyte-macrophage colony-stimulating factor (GM-CSF), and 0.10% gentamicin.
(§4) Cells are seeded at Day 0 at 3×10^4 cells/mL in Stage 1 media, and cells are tested for purity by a CD34+ and CD45+ count and viability by 7AAD staining. At Day 5 cells are counted and seeded to a concentration of 1×10^5 cells/mL with Stage 1 medium. At Day 7 cells are counted and seeded to a concentration of 1×10^5 cells/mL with Stage 1 medium.
(§5) At Day 10, cells are counted and seeded to a concentration of 1×10^5 cells/mL in Stage 2 medium. At Day 12, cells are counted and seeded to a concentration of 3×10^5 cells/mL in Stage 2 medium. At Day 14, cells are counted and seeded in Stage 3 medium. Cells are maintained in Stage 3 media until day 35.
(§6) UCB CD34+ cells were cultivated in presence of cytokines including thrombopoietin, SCF, Flt3 ligand, IL-7, IL-15 and IL-2 for 35 days to produce three-stage NK cells, as described in Example 1. Multi-color flow cytometry was used to determine the phenotypic characteristics of three-stage NK cells.
(§7) For biological testing, the compounds were provided to culture to evaluate their effects on NK cell expansion and differentiation. Specifically, donors of CD34+ cells (StemCell Technology) were thawed and expanded in vitro following NK culture protocol. During the first 14 days of the culture, each CRL compounds was dissolved in DMSO and added to the culture at 10 μM concentration. SR1 (at 10 μM) served as a positive control compound, while DMSO alone without any compound served as a negative control. At the end of the culture on Day 35, cell expansion, natural killer (NK) cell differentiation and cytotoxicity of the cells against K562 tumor cell line were characterized. Due to the large number of the compounds, the testing was performed in two experiments, CRL1-11 and CRL 12-22. The same donors were used for each experiment. Positive and negative controls were also included in both experiments.

[2] = tested on: NK cells; test: NK cell differentiation at Day 35 by multi-color flow cytometry; settings: PNK-007 culture, compound at 10 μM
Text: as §6, §7

[3] = tested on: K562 tumor cells; test: Cytotoxicity assay of compound cultured cells against K562 tumor cells; settings: 10:1 E:T ratio, both donors
Procedure: as §7
Cytotoxicity assay was run using compound cultured cells against K562 tumor cells at 10:1 effector to target ratio (FIG. 5) to evaluate cell functions.

[4] = tested on: CD34 cells; test: CD34 cell expansion at Day 14 of the NK culture; settings: compound at 10 μM; Day 14 of the culture
Procedure: as §1, §2, §3, §4
as §5, with “35. […]” for “35.”

| Structure (SMILES) | support of NK cell expansion (and differentiation), in words [1] | CD56+/CD11a+ subpopulation compared to SR1 [2] | level of expansion compared to SR1 at Day 35 [1] | killing activities of cultured cells compared to those cultured with SR1 [3] | CD34 cell expansion at Day 14 [4] | expansion, differentiation and cytotoxicity profiles compared to SR1 [1] |
| --- | --- | --- | --- | --- | --- | --- |
| CCC(C)Nc1cc(-c2cncc(C#N)c2)nc(NCCc2c[nH]c3ccccc23)n1 (centres unmarked) [CRL7, 5-(2-((2-(1H-indol-3-yl)ethyl)amino)-6-(sec-butylamino)pyrimidin-4-yl)nicotinonitrile] | Except for CRL7 and CRL13, the rest of the compounds all resulted in a NK expansion; also recorded: all the compounds except CRL7 and CRL13 supported PNK-007 expansion and differentiation |  |  |  |  |  |
| CCC(C)Nc1nc(NCCc2c[nH]c3ccccc23)c2ccccc2n1 (centres unmarked) [CRL13, N^4-(2-(1H-indol-3-yl)ethyl)-N^2-(sec-butyl)quinazoline-2,4-diamine] | Except for CRL7 and CRL13, the rest of the compounds all resulted in a NK expansion; also recorded: all the compounds except CRL7 and CRL13 supported PNK-007 expansion and differentiation |  |  |  |  |  |
| CC(C)c1csc2c(NCCc3c[nH]c4ccccc34)nc(-c3cncc(C#N)c3)nc12 [CRL17, 5-(4-((2-(1H-indol-3-yl)ethyl)amino)-7-isopropylthieno[3,2-d]pyrimidin-2-yl)nicotinonitrile] |  | increased CD56+/CD11a+ subpopulation | slightly less expansion compared to SR1 | increased killing activities of the cells |  |  |
| CC(C)c1csc2c(NCCc3c[nH]c4ccccc34)nc(-c3cncc(F)c3)nc12 [CRL18, N-(2-(1H-indol-3-yl)ethyl)-2-(5-fluoropyridin-3-yl)-7-isopropylthieno[3,2-d]pyrimidin-4-amine] |  | increased CD56+/CD11a+ subpopulation | slightly less expansion compared to SR1 | increased killing activities of the cells |  |  |
| Fc1cncc(-c2nc(NCCc3c[nH]c4ccccc34)c3occc3n2)c1 [CRL19, N-(2-(1H-indol-3-yl)ethyl)-2-(5-fluoropyridin-3-yl)furo[3,2-d]pyrimidin-4-amine] | supported cell expansion the best |  |  |  | achieved the highest CD34 cell expansion | very similar expansion, differentiation and cytotoxicity profiles as SR1 |
| Cc1cncc(-c2nc(NCCc3c[nH]c4ccccc34)c3occc3n2)c1 [CRL20, N-(2-(1H-indol-3-yl)ethyl)-2-(5-methylpyridin-3-yl)furo[3,2-d]pyrimidin-4-amine] | supported cell expansion the best |  |  |  | achieved the highest CD34 cell expansion | very similar expansion, differentiation and cytotoxicity profiles as SR1 |
| Cc1cncc(-c2nc(NCCc3c[nH]c4ccccc34)c3scc(C(C)C)c3n2)c1 [CRL21, N-(2-(1H-indol-3-yl)ethyl)-7-isopropyl-2-(5-methylpyridin-3-yl)thieno[3,2-d]pyrimidin-4-amine] |  | increased CD56+/CD11a+ subpopulation | slightly less expansion compared to SR1 | increased killing activities of the cells |  |  |
| N#Cc1cncc(-c2nc(NCCc3c[nH]c4ccccc34)c3occc3n2)c1 [CRL22, 5-(4-((2-(1H-indol-3-yl)ethyl)amino)furo[3,2-d]pyrimidin-2-yl)nicotinonitrile] | supported cell expansion the best |  |  |  | achieved the highest CD34 cell expansion | very similar expansion, differentiation and cytotoxicity profiles as SR1 |

From patent US20230028680A1, “EXPANSION OF NATURAL KILLER CELLS AND ILC3 CELLS WITH NOVEL AROMATIC COMPOUNDS” (Celularity Inc., priority 2018, published 2023)
